Legend:
[1] = tested on: Pseudomonas aeruginosa ΔnarGHJI; assay: Chlorate sensitivity assay and chlorate quantification, ΔnarGHJI versus wild type; assay type: cell-based; conditions: 1 mM chlorate, 72 hours
Procedure: (§1) Chlorate sensitivity assay was then performed. In particular, to test mutants for chlorate sensitivity, overnight cultures of each strain were grown aerobically in LB with 40 mM KNO3. Cultures were pelleted, washed twice with LB to remove residual KNO3, and resuspended in LB without (control) or with 1 mM NaClO3 to final OD500=1. Cultures were moved to the anaerobic glove box to adapt to anoxia.
Cultures were incubated at 37° C. for 72 hours, after which they were removed from the anaerobic glove box to determine viable cell counts for calculating percent survival as described previously) (Spero and Newman 2018).). At 72 hours, part of the culture was also pelleted, and supernatant collected for quantifying chlorate concentrations via ion chromatography.
(§2) Chlorate quantification was then performed via ion chromatography. In particular, culture samples were pelleted, and the supernatant was diluted 1:10 in dH2O in a 0.5 mL vial (Thermo Fisher Scientific catalog numbers 038010 and 038011). Chlorate concentrations were determined using a Dionex ICS 2000 ion chromatography as described previously (Spero and Newman 2018).) at the Environmental Analysis Center at Caltech.

[2] = tested on: Pseudomonas aeruginosa ΔhflC; assay: Chlorate sensitivity assay and chlorate quantification, ΔhflC versus wild type; assay type: cell-based; conditions: 1 mM chlorate
Procedure: as §1
[…] At 72 hours, part of the culture was also pelleted, and supernatant collected for quantifying chlorate concentrations via ion chromatography.
as §2

Question: `[O-][Cl+2]([O-])O` [chlorate, NaClO3] was tested. Which “chlorate resistance (% survival) relative to WT” value ([1]; anaerobic, 37° C. (FIG. 2A)) did it give?
Answer: more resistant to chlorate than WT

Question: What about the “Nar activity, chlorate reduction (% chlorate remaining) relative to WT” value ([1]; ion chromatography (FIG. 2B)) of the same molecule?
Answer: lower rates of chlorate reduction

Question: And the “chlorate resistance (% survival) relative to WT” value ([2]; over the course of 48 hours (FIG. 3A))?
Answer: more resistant to chlorate than WT

Question: And the “Nar activity, chlorate reduction (% chlorate remaining) relative to WT” value ([2]; over the course of 48 hours (FIG. 3B))?
Answer: lower rates of chlorate reduction

From patent publication US20210322462A1, “WOUND PREVENTION AND/OR TREATMENT AND RELATED COMPOUNDS, MATRICES, COMPOSITIONS, METHODS AND SYSTEMS” (CALIFORNIA INSTITUTE OF TECHNOLOGY, priority 2020, published 2021)
